In patent US7692011B2, “8-hydroxy and 8-mercapto quinazolinones” (Prana Biotechnology Limited, priority 2002, dated 2010):
Values after ≈ are worked out from the molar mass of the structure shown. Where two headings read alike, the source gives them in different places.

How the values were obtained:
[1] = Assay 12 Turbidimetric solubility measurements; assay type: physicochemical; settings: kinetic from dmso stock, nephelometry
Protocol: Turbidimetric Solubility Measurements
The solubility estimate was measured at both pH 2.0 and pH 6.5. This is within the pH range that can be anticipated along the proximal gastrointestinal tract in humans.
The compounds were dissolved in DMSO to appropriate concentrations and then spiked into either 0.01M HCl (approx. pH=2.0) or pH 6.5 isotonic phosphate buffer, the final DMSO concentration being 1%. Samples were then analysed via Nephelometry to determine a solubility range. [as per D. Bevan and R. S. Lloyd, Anal. Chem. 2000, 72, 1781-1787].

[2] = tested on: Neuronal cortical cells treated with Aβ1-42; assay: Assay 3(c) Aβ neurotoxicity and Aβ neuroprotection (MTS); assay type: cell-based, mouse; settings: 20 uM Aβ1-42, 4 days
Protocol: Primary Cortical Neuronal Cultures
Cortical cultures were prepared as previously described (White et al., 1998). Embryonic day 14 BL6Jx129sv mouse cortices were removed, dissected free of meninges and dissociated in 0.025% (wt/vol) trypsin. Dissociated cells were plated in 48 well culture plates at a density of 2×10^6 cells/mL in MEM with 25% (vol/vol) FCS and 5% (vol/vol) HS and incubated at 37° C., 2 hrs. Media was then replaced with Neurobasal media (Invitrogen Life Technologies) and B27 supplements (Invitrogen Life Technologies). Cultures were maintained at 37° C. in 5% CO2. Prior to experimentation, the culture medium was replaced with Neurobasal media and B27 minus antioxidants (Invitrogen Life Technologies).
(c) Assay for Aβ Neurotoxicity and Aβ Neuroprotection
Neuronal cortical cells were cultured for five days as per Assay 2. On day six the neurobasal (NB) media (Invitrogen Life Technologies) and B27 supplement (Invitrogen Life Technologies) were replaced with NB media and B27 supplement (no antioxidants). On day six, test compounds were individually added to the neuronal cell cultures:
(§1) The test compounds were dissolved in 100% DMSO to a concentration of 2.5 mM (10 mM if excess compound was weighed out per vial—then diluted to 2.5 mM). 2.5 mM stock solution was serially diluted 1 in 10 to give working solutions of 250 uM, 25 uM, 2.5 uM.
Aβ was initially dissolved in 20 mM NaOH to a concentration of 1 mM and sonicated for 5 minutes. The peptide was then diluted in H2O and 10×PBS to a final concentration of 200 uM Aβ in 1×PBS. The peptide was again sonicated for 5 minutes and then spun at 14000 rpm for 5 min and transferred to a fresh tube.
as §1, with “in 10 [in NB media and B27 (no antioxidants)] to give” for “in 10 to give”, “2.5 uM. Test compounds were not added directly to cells, instead they were added to a 48 well ‘Drug Plate’ as comprised below:” for “2.5 uM.”
Preparation of “Drug Plate”:
• Well 1: 515 ul NB+B27(no antioxidant)*+24 ul 25 uM test compound+60 ul Aβ diluent** • Well 2: 515 ul NB+B27(no antioxidant)+24 ul 250 uM test compound+60 ul Aβ diluent • Well 3: 515 ul NB+B27(no antioxidant)+24 ul test compound diluent***+60 ul Aβ1-42 • Well 4: 515 ul NB+B27(no antioxidant)+24 ul 2.5 uM test compound+60 ul Aβ1-42 • Well 5: 515 ul NB+B27(no antioxidant)+24 ul 25 uM test compound+60 ul Aβ1-42 • Well 6: 515 ul NB+B27(no antioxidant)+24 ul 250 uM test compound+60 ul […] • Well 7: 515 ul NB+B27(no antioxidant)+24 ul test compound diluent+60 ul Aβ1-42 diluent • Well 8: 600 ul NB+B27(no antioxidant) • N.B. 60 ul Aβ1-42 equals 20 ul Aβ1-42 per well equals 20 uM Aβ1-42
The Drug Plate was incubated at 37° C. for 15 mins. 200 ul of each well was added in triplicate to the corresponding cell plate. The cell plate was incubated at 37 C, for 4 days. • * NB media+B27 (no antioxidants), • ** Aβ diluent 2 mM NaOH, 1×PBS • *** PBT diluent 10% DMSO in NB+B27(no antioxidant) Completion of the Assay:
On the 4th day after treating the cells the assay is completed by adding MTS to the cells.

Aβ 1-42 = molecular target: T1, Aβ 1-42 (Homo sapiens, UniProt P05067); assay: Assay 1 Fluorometric H2O2 assay: inhibition of hydrogen peroxide generation by Aβ in the presence of copper; assay type: biochemical; settings: Aβ 1-42 with Cu-Gly, DCF fluorescence
T1 construct: The reaction solutions contained Aβ 1-42
T1 sequence (P05067 672-713 limits assumed): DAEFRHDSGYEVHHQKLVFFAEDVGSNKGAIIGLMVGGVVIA
Protocol: Assay 1. Fluorometric H2O2 Assay
A fluorometric assay was used to test the ability of a test compound to inhibit hydrogen peroxide generation by Aβ in the presence of copper based on dichlorofluoroscein diacetate (DCF; Molecular Probes, Eugene Oreg.). The DCF solution (5 mM) in 100% dimethyl sulphoxide (previously purged with argon for 1 hr at 20° C.) was deacetylated in the presence of 0.025M NaOH for 30 min and neutralised at pH 7.4 to a final concentration of 1 mM. Horseradish peroxidase ([…]) stock solution was prepared to 1 μM at pH 7.4. The reactions were carried out in PBS, pH 7.4 in a 96 well plate (total volume=250 μl/well). The reaction solutions contained Aβ 1-42 at concentrations in the range of 50 nM to 1 μM, copper-glycine chelate (Cu-Gly), was prepared by adding CuCl2 to glycine in the ratio of 1:6 and added to the Aβ in the proportion 2Cu-Gly: 1Aβ), reducing agents including dopamine (5 μM) or ascorbic acid, deacetylated DCF 100 μM, and HRP, 0.1 μM. 1-10 μM EDTA or another chelator may also be present as a control for free copper, but was not required for the assay to function. The reaction mixture was incubated at 37 C for 60 min. Catalase (4000 units/ml) and H2O2 (1-2.5 μM) standards in PBS pH 7.4 may be included as positive controls. Fluorescence was recorded using a plate reader with excitation and emission filters at […] respectively. H2O2 concentration may be established by comparing fluorescence with the H2O2 standards. Inhibition of Aβ H2O2 production was assayed by including a given concentration of test compound(s) in the test wells.

[3] = aqueous buffer, pH 6.5 isotonic phosphate buffer, 1% DMSO, read-out: Assay 12 Solubility at pH 6.5
[4] = simulated gastric fluid, 0.01 M HCl, pH 2.0, 1% DMSO, read-out: Assay 12 Solubility in 0.01 M HCl, pH 2.0

solubility [1, 3] [µg/mL]	solubility [1, 4] [µg/mL]	IC50 (Aβ 1-42) [nM]	Compound	Assay 3(c) Neuroprotection (% inhibition of Abeta toxicity) [2] [%]
> 200	50 to 100 (≈ 216 to 432 µM)	630	Oc1c(N2CCOCC2)ncc2cccnc12 [PBT-1053, 7-Morpholin-4-yl-[1,6]naphthyridin-8-ol]	11
12.5 to 25 (≈ 46.1 to 92.2 µM)	3.1 to 6.2 (≈ 11.4 to 22.9 µM)	450	O=c1c2c(Cl)cc(Cl)c(O)c2ncn1C1CC1 [PBT-1061, 5,7-Dichloro-3-cyclopropyl-8-hydroxy-3H-quinazolin-4-one]	16
< 5	< 10	620	O=c1c(-c2ccc(Cl)cc2)cnc2c(O)c(I)ccn12 [PBT-1063, 3-(4-Chlorophenyl)-9-hydroxy-8-iodopyrido[1,2-a]pyrimidin-4-one]	3
